Source: BindingDB's records for doi:10.1021/jm00068a006 (Merck Research Laboratories, 1993)

Target: T1, Dimer of Gag-Pol polyprotein [489-587] (Human immunodeficiency virus 1, UniProt P12497)
T1 construct: 489-587
Test: Protease Inhibition Assay
Settings: pH 5.5; 30 °C

## CC(C)(C)NC(=O)[C@@H]1C[C@@H]2CCCC[C@@H]2CN1C[C@@H](O)[C@H](Cc1ccccc1)NC(=O)[C@@H](NC(=O)c1ccc2ccccc2n1)[C@H]1CCOC1 [(3S,4aS,8aS)-N-tert-butyl-2-[(2R,3S)-2-hydroxy-3-[(2S)-2-[(3R)-oxolan-3-yl]-2-(quinolin-2-ylformamido)acetamido]-4-phenylbutyl]-decahydroisoquinoline-3-carboxamide]
  IC50: 0.054 nM
